Residues, ends and D or L forms follow the SMILES beside them. *: point of attachment. Cbz = O=C(OCc1ccccc1)*
SMILES | melting point [°C]
CCOC(=O)c1c(Cn2cncn2)nc2sc3c(c2c1-c1ccc(OC)c(OC)c1)CCCN3C(=O)OCc1ccccc1 | 184 to 185
COc1cc(CCN2CCC(NC(=O)c3ccccc3)CC2)cc(OC)c1OC | 193 to 194
Cc1ccc2c(c1)c(N1CCN(C(=O)c3cccs3)CC1)c(C#N)c(=O)n2Cc1ccc(F)cc1 | 274
COC1(C)OC(=O)c2c(O)cccc21 (stereo not drawn) | 101 to 104
Cc1ccc2ccc(N3C(=O)c4ccccc4C3CC(=O)CCC(C)C)nc2n1 (stereo not drawn) | 155
O=[N+]([O-])c1ccccc1Nc1cccc(Nc2ccc(C(F)(F)F)cc2[N+](=O)[O-])c1 | 95 to 98
COC(=O)c1cnc(SC)n1C(c1ccccc1)c1ccccc1 | 118
CC(C)OC1CCC(=O)N1S(=O)(=O)C=Cc1ccc([N+](=O)[O-])cc1 (stereo not drawn) | 178 to 179
CCC(=O)NCCC1CCc2cc(Br)c3c(c21)CC(C)(C)O3 (stereo not drawn) | 98 to 101
O=[N+]([O-])c1ccc(O)c(-c2cccs2)c1 | 130
O=Cc1csc(N(c2ccccc2)c2ccccc2)n1 | 160 to 161
COc1ccc(S(=O)(=O)Nc2cccnc2Nc2ccccc2)cc1OC | 171 to 172
CN(Cc1cc(C(F)(F)F)cc(C(F)(F)F)c1)C(=O)c1nc(Cl)c2ccccc2c1-c1ccccc1 | 176 to 177
COc1nsc(NC(=O)[C@H](C)NC(=O)[C@H](Cc2ccccc2)NC(=O)OCc2ccccc2)n1 | 161 to 162
N#Cc1ccc(-c2ccc(Br)o2)cc1 | 94 to 94.5
CC1Sc2ccccc2N1C(=S)Nc1cccc(Cl)c1 (stereo not drawn) | 120 to 122
COc1ccccc1C(OC)c1cccnn1 (stereo not drawn) | 110 to 111
O=C(NO)c1ccc(OC(=O)C2(c3ccc(OC(=O)c4ccccc4)cc3)CCCCC2)cc1 | 114 to 115
CCOC(=O)c1ccc(/C=C(/COCc2ccc(OC)cc2)Cn2ccnc2)c(Cl)c1 | 41 to 42
C[C@]1(N2Cc3c(OCc4ccc(CN5CCOCC5)cc4)cccc3C2=O)CCC(=O)NC1=O | 178 to 180
NS(=O)(=O)c1ccc(NN=Cc2ccc(Br)cc2)cc1 | 190 to 192
NS(=O)(=O)c1cc2c(c(C(=O)N3CCN(c4ncccn4)CC3)c1)OCCO2 | 239
Cc1cc(N)cc(C)c1S(=O)(=O)NCCSCCN | 150 to 160

SMILES | melting point [°C]
CCOC(=O)Nc1nc(-c2ccccc2)c(-c2nc3ccccc3c(=O)n2-c2ccc(OC)cc2)s1 | 256 to 257
Cc1c(NC(=O)N2C[C@H](O[Si](C)(C)C(C)(C)C)C[C@H]2CO)ccc(C#N)c1Cl | 169 to 171
Cc1sc(N)c(C(=O)c2ccc(Br)s2)c1C | 128 to 130
Cc1ccccc1CN(c1ncnc2c1ncn2C1OC(CO)C(O)C1O)C1CCCCC1 (stereo not drawn) | 129 to 130
COc1ccc(C(=O)c2ccc(Cl)cc2Cl)cc1Cl | 98
O=C(C=Cc1cc(O)c(O)c([N+](=O)[O-])c1)c1ccc([N+](=O)[O-])cc1 | 255 to 256
O=C(N[C@H]1CC[C@H](CCN2CCN(c3nccc4c3OCC4)CC2)CC1)c1ccc(-n2cccc2)cc1 | 236
CC(C)(C)[Si](C)(C)OC1CN(c2ccc(N3C[C@H](CN=[N+]=[N-])OC3=O)cc2F)C1 | 121 to 122
COC(=O)C(Cc1ccccc1)NC(=O)C(CC(N)=O)NC(=O)C(CO)NC(=O)OCc1ccccc1 (stereo not drawn) (Cbz-Ser-Asn-Phe-OMe; configuration not given here) | 180 to 183
Nc1c(OCC(O)CN2CCC(COc3ccccc3)CC2)cccc1[N+](=O)[O-] (stereo not drawn) | 117 to 118
CC(C)c1ncc(CN2C(=O)C3(COc4cc5c(cc43)OCO5)c3cccc(C(F)(F)F)c32)s1 (stereo not drawn) | 101 to 103
COCc1c[nH]c(-c2ccc(O)cc2)n1 | 191 to 192
O=C(c1ccccc1)c1ccc2nc(-c3c[nH]c(C(=O)N4CCCC4)c3)[nH]c2c1 | 160 to 162
C#CCN1CCCc2ccc(OC(=O)Nc3c(C)cccc3C(C)C)cc21 | 120
CCCCCCc1cc2c(s1)-n1c(C)nnc1CN=C2c1ccc(C)cc1 | 74 to 76
FC(F)(F)Sc1c(-c2ccc(Cl)cc2)[nH]c(C(F)(F)F)c1Br | 87 to 88.5
CC1(C(=O)N2CCN(S(=O)(=O)c3ccc(Br)cc3)CC2)CCN(c2ccncn2)CC1 | 217 to 218
COc1ccc2c(c1)C=Cn1c(nnc1S(C)=O)C2 (stereo not drawn) | 241 to 242
Cn1c(NO)cc(=O)n(C2CCCCC2)c1=O | 153 to 155
NC(=O)Cc1nnc(S)o1 | 160 to 163
COc1ccc(-n2cc(C(=O)O)c3nc4c(C)cccc4cc3c2=O)cc1OC | 297 to 298
Oc1cccc2csnc12 | 99 to 100
CCCOc1ccc(C(=O)OC)cc1C(C)=O | 44 to 47

SMILES | melting point [°C]
COc1nc(N2C(=O)C3CCCCN3C2=O)c(F)cc1C#N (stereo not drawn) | 159 to 170
CCOC(=O)c1coc2cc(NS(C)(=O)=O)c(Oc3ccccc3)cc2c1=O | 167 to 168
O=c1c(CCCCc2ccncc2)cc2cccnc2n1-c1cccc([N+](=O)[O-])c1 | 169 to 170
Cc1cc(Cl)n(-c2ccc(Cl)nn2)n1 | 123 to 126
CCOC(=O)C(NC(=O)c1ccc(OC)cc1)C(C)=O (stereo not drawn) | 67 to 69
O=C(OCC(OC(=O)c1ccccc1)c1nc2c(C(F)(F)F)cccc2c(O)c1C(=O)Nc1nccs1)c1ccccc1 (stereo not drawn) | 240
COc1ccc(NC(=O)c2ccc(OC)c(NC(=S)Nc3cc(Cl)cc(Cl)c3)c2)cc1 | 175 to 182
O=C(CNc1ccccc1F)Nc1ccc([N+](=O)[O-])cc1 | 150 to 153
O=c1[nH]c2cc(Sc3cccc4cnccc34)c([N+](=O)[O-])cc2[nH]1 | > 270
COc1ccc(N2CCOCC2)cc1NC(=S)c1nc2ccc(C)nc2[nH]1 | 189 to 191
COc1ccc(C(CC2=NN(C)C(=O)C2)c2ccccc2)cc1OC1CCCC1 (stereo not drawn) | 105 to 108
CC(C)CCCC(C)C1CCC2C3CC=C4CC(Oc5ccc(N)cc5N)CCC4(C)C3CCC12C (stereo not drawn) | 159 to 163
CC(C)n1cc2c3c(cccc31)C1CC(C(=O)NCCc3c[nH]cn3)CN(C)C1C2 (stereo not drawn) | 83 to 86
CCCCCCCCCCCCCCCC(=O)Oc1ccc(C(O)C(C)N2CCC(Cc3ccccc3)CC2)cc1 (stereo not drawn) | 75 to 77
Cn1c(-c2cccc(-c3cc4ccccc4n3C)c2)cc2ccccc21 | 150
Nc1ccc(Oc2ncnc(Oc3ccccc3Cl)c2F)c(Cl)c1Cl | 162 to 163
O=C(NNCCO)c1ccc(NCc2cc(Br)ccc2OCc2ccccc2)cc1 | 121 to 122
CCc1c(Cc2c[nH]c3ccccc23)[nH]c(=O)c(CC(C)C)[n+]1[O-] | 212 to 214
O=C(Nc1ccc2nc(CN3CCCCC3)ccc2c1)c1ccc(-c2ccccc2F)cc1 | 163 to 164
O=C(Cl)c1cnc2cc(OCc3ccccc3)c(OCc3ccccc3)cn2c1=O | 152
CC(=O)OC1CC2(C)C(=O)CCC2C2C=CC3=CC(=O)CCC3C12 (stereo not drawn) | 246 to 248
CC(C)(C)OC(=O)N1CCOS1(=O)=O | 122
